According to US12421226B2, “Heteroaryl compounds as necrosis inhibitors, composition and method using the same” (Accro Bioscience (HK), priority 2019, dated 2025):
pIC50: −log10 of the molar value. Counter-ions that a name gives are not always drawn.

system: HT29 cells; experiment: Necroptosis inhibition in HT29 cell assay (TNF-α/Smac mimetic/z-VAD induced, cell viability); format: cell-based; settings: Homo sapiens, HT-29, 1 h pre-treatment with compound, then TNF-α 40 ng/mL + Smac mimetic 100 nM + z-VAD 20 μM for 48 hours
Protocol: 1. Compounds Tested for Necroptosis Inhibition Activities in HT29 Cell Assay
(§1) For this assay, HT29 cells were added to 96-well plates and then were pre-treated with 10 μM of the test compound for one hour. Then the cells were treated with tumor necrosis factor alpha (TNF-α, 40 ng/mL), Smacmimetic (cIAP inhibitor) (100 nM) and z-VAD (capase inhibitor, from calbiochem) (20 μM) for 48 hours, and the viability of cells was quantified. DMSO pretreatment group was used as negative controls, Nec-1 (known necroptosis inhibitor, from Biomol) pretreatment group was used as positive controls.

Point of comparison: O=C(Nc1nc2ccc(-c3cnc4cnn(C(=O)OC5CCOCC5)c4c3)cc2s1)C1CC1 [Compound C11, tetrahydropyran-4-yl 6-[2-(cyclopropanecarbonylamino)-1,3-benzothiazol-6-yl]pyrazolo[4,3-b]pyridine-1-carboxylate], pIC50 5.39. Against it:
- CC(=O)Nc1nc2ccc(-c3cnc4ccn(C(=O)OC5CCCCC5)c4c3)cc2s1 [Compound C1, cyclohexyl 6-(2-acetamido-1,3-benzothiazol-6-yl)pyrrolo[3,2-b]pyridine-1-carboxylate] — 1.98 log units higher, 7.37
- CC(=O)Nc1nc2ccc(-c3cnc4ncn(C(=O)OC5CCCCC5)c4c3)cc2s1 [Compound C2, cyclohexyl 6-(2-acetamido-1,3-benzothiazol-6-yl)imidazo[4,5-b]pyridine-1-carboxylate] — 0.43 log units lower, 4.96
- O=C(Nc1nc2ccc(-c3cnc4ccn(C(=O)OC5CCOCC5)c4c3)nc2s1)C1CC1 [Compound C3, tetrahydropyran-4-yl 6-[2-(cyclopropanecarbonylamino)thiazolo[5,4-b]pyridin-5-yl]pyrrolo[3,2-b]pyridine-1-carboxylate] — 2.63 log units higher, 8.02
- O=C(Nc1nc2ccc(-c3cnc4ccn(C(=O)OC5CCC(F)(F)CC5)c4c3)cc2s1)C1CC1 [Compound C4, (4,4-difluorocyclohexyl) 6-[2-(cyclopropanecarbonylamino)-1,3-benzothiazol-6-yl]pyrrolo[3,2-b]pyridine-1-carboxylate] — 1.69 log units higher, 7.08
- O=C(Nc1nc2ccc(-c3cnc4ccn(C(=O)OC5CCOCC5)c4c3)cc2s1)C1CC1 [Compound C5, tetrahydropyran-4-yl 6-[2-(cyclopropanecarbonylamino)-1,3-benzothiazol-6-yl]pyrrolo[3,2-b]pyridine-1-carboxylate] — 2.86 log units higher, 8.25
- CNC(=O)Nc1nc2ccc(-c3cnc4ccn(C(=O)OC5CCOCC5)c4c3)cc2s1 [Compound C7, tetrahydropyran-4-yl 6-[2-(methylcarbamoylamino)-1,3-benzothiazol-6-yl]pyrrolo[3,2-b]pyridine-1-carboxylate] — 2.10 log units higher, 7.49
- O=C(NC1CCOCC1)c1c[nH]c2ncc(-c3ccc4nc(NC(=O)C5CC5)sc4c3)cc12 [Compound C9, 5-[2-(cyclopropanecarbonylamino)-1,3-benzothiazol-6-yl]-N-tetrahydropyran-4-yl-1H-pyrrolo[2,3-b]pyridine-3-carboxamide] — within 0.2 log units, 5.28
- O=C(NC1CCOCC1)c1n[nH]c2ncc(-c3ccc4nc(NC(=O)C5CC5)sc4c3)cc12 [Compound C10, 5-[2-(cyclopropanecarbonylamino)-1,3-benzothiazol-6-yl]-N-tetrahydropyran-4-yl-1H-pyrazolo[3,4-b]pyridine-3-carboxamide] — 0.47 log units lower, 4.92
- O=C(NC1CCOCC1)c1cccc2ncc(-c3ccc4nc(NC(=O)C5CC5)sc4c3)cc12 [Compound C13, 3-[2-(cyclopropanecarbonylamino)-1,3-benzothiazol-6-yl]-N-tetrahydropyran-4-yl-quinoline-5-carboxamide] — 0.50 log units lower, 4.89
- O=C(Nc1nc2ccc(-c3cnc4ccn(C(=O)OC5CCCCC5)c4c3)cc2s1)C1CC1 [Compound C15] — 2.76 log units higher, 8.15
- CNC(=O)Nc1nc2ccc(-c3cnc4ccn(C(=O)OC5CCCCC5)c4c3)cc2s1 [Compound C16, cyclohexyl 6-[2-(methylcarbamoylamino)-1,3-benzothiazol-6-yl]pyrrolo[3,2-b]pyridine-1-carboxylate] — 2.21 log units higher, 7.60
- O=C(Nc1cn2cc(-c3cnc4ccn(C(=O)OC5CCCCC5)c4c3)ccc2n1)C1CC1 [Compound C17] — 2.41 log units higher, 7.80
- CC(=O)Nc1nc2ccc(-c3cnc4scc(C(=O)NC5CCCCC5)c4c3)cc2s1 [Compound C19, 5-(2-acetamido-1,3-benzothiazol-6-yl)-N-cyclohexyl-thieno[2,3-b]pyridine-3-carboxamide] — 2.57 log units higher, 7.96
- O=C(Nc1nc2ccc(-c3cnc4ccn(C(=O)NC5CCOCC5)c4c3)cc2s1)C1CC1 [Compound C21, 6-[2-(cyclopropanecarbonylamino)-1,3-benzothiazol-6-yl]-N-tetrahydropyran-4-yl-pyrrolo[3,2-b]pyridine-1-carboxamide] — 2.27 log units higher, 7.66
- CC(=O)Nc1nc2ccc(-c3cnc4snc(C(=O)NC5CCCCC5)c4c3)cc2s1 [Compound C22, 5-(2-acetamido-1,3-benzothiazol-6-yl)-N-cyclohexyl-isothiazolo[5,4-b]pyridine-3-carboxamide] — 2.07 log units higher, 7.46
- CCC(CC)OC(=O)n1ccc2ncc(-c3ccc4nc(NC(=O)C5CC5)sc4c3)cc21 [Compound C24, 1-ethylpropyl 6-[2-(cyclopropanecarbonylamino)-1,3-benzothiazol-6-yl]pyrrolo[3,2-b]pyridine-1-carboxylate] — 2.09 log units higher, 7.48
- O=C(Nc1nc2ccc(-c3cnc4ccn(C(=O)CC5CCCCC5)c4c3)cc2s1)C1CC1 [Compound C25, N-[6-[1-(2-cyclohexylacetyl)pyrrolo[3,2-b]pyridin-6-yl]-1,3-benzothiazol-2-yl]cyclopropanecarboxamide] — 2.15 log units higher, 7.54
- CCC(=O)Nc1nc2ccc(-c3cnc4ccn(C(=O)OC5CCCCC5)c4c3)cc2s1 [Compound C26, cyclohexyl 6-[2-(propanoylamino)-1,3-benzothiazol-6-yl]pyrrolo[3,2-b]pyridine-1-carboxylate] — 1.91 log units higher, 7.30
- CNC(=O)Nc1nc2ccc(-c3cnc4snc(C(=O)NC5CCCCC5)c4c3)cc2s1 [Compound C27, N-cyclohexyl-5-[2-(methylcarbamoylamino)-1,3-benzothiazol-6-yl]isothiazolo[5,4-b]pyridine-3-carboxamide] — 2.09 log units higher, 7.48
- CNCC(C)NC(=O)c1csc2ncc(-c3ccc4nc(NC(=O)C5CC5)sc4c3)cc12 (centres unmarked) [Compound C28, 5-[2-(cyclopropanecarbonylamino)-1,3-benzothiazol-6-yl]-N-[1-methyl-2-(methylamino)ethyl]thieno[2,3-b]pyridine-3-carboxamide] — 1.03 log units higher, 6.42
- CCOC(=O)Nc1nc2ccc(-c3cnc4snc(C(=O)NC5CCCCC5)c4c3)cc2s1 [Compound C29, ethyl N-[6-[3-(cyclohexylcarbamoyl)isothiazolo[5,4-b]pyridin-5-yl]-1,3-benzothiazol-2-yl]carbamate] — 3.12 log units higher, 8.51
- CCC(CC)NC(=O)c1nsc2ncc(-c3ccc4nc(NC(=O)C5CC5)sc4c3)cc12 [Compound C31, 5-[2-(cyclopropanecarbonylamino)-1,3-benzothiazol-6-yl]-N-(1-ethylpropyl)isothiazolo[5,4-b]pyridine-3-carboxamide] — 2.57 log units higher, 7.96
- CNCC(C)NC(=O)c1nsc2ncc(-c3ccc4nc(NC(=O)C5CC5)sc4c3)cc12 (centres unmarked) [Compound C32, 5-[2-(cyclopropanecarbonylamino)-1,3-benzothiazol-6-yl]-N-[1-methyl-2-(methylamino)ethyl]isothiazolo[5,4-b]pyridine-3-carboxamide] — 0.46 log units higher, 5.85
- CCOC(=O)Nc1nc2ccc(-c3cnc4ccn(C(=O)OC5CCCCC5)c4c3)cc2s1 [Compound C34, cyclohexyl 6-[2-(ethoxycarbonylamino)-1,3-benzothiazol-6-yl]pyrrolo[3,2-b]pyridine-1-carboxylate] — 1.43 log units higher, 6.82
- O=C(NC1CCOCC1)c1nsc2ncc(-c3ccc4nc(NC(=O)C5CC5)cn4c3)cc12 [Compound C35, 5-[2-(cyclopropanecarbonylamino)imidazo[1,2-a]pyridin-6-yl]-N-tetrahydropyran-4-yl-isothiazolo[5,4-b]pyridine-3-carboxamide] — 1.41 log units higher, 6.80
- CNCC(C)OC(=O)n1ccc2ncc(-c3ccc4nc(NC(=O)C5CC5)sc4c3)cc21 (centres unmarked) [Compound C36, [1-methyl-2-(methylamino)ethyl] 6-[2-(cyclopropanecarbonylamino)-1,3-benzothiazol-6-yl]pyrrolo[3,2-b]pyridine-1-carboxylate, hydrochloride salt] — 0.59 log units lower, 4.80
- CCC(CC)NC(=O)c1csc2ncc(-c3ccc4nc(NC(=O)C5CC5)sc4c3)cc12 [Compound C37, 5-[2-(cyclopropanecarbonylamino)-1,3-benzothiazol-6-yl]-N-(1-ethylpropyl)thieno[2,3-b]pyridine-3-carboxamide] — 3.10 log units higher, 8.49
- O=C(NC1CCC(F)(F)CC1)c1csc2ncc(-c3ccc4nc(NC(=O)C5CC5)sc4c3)cc12 [Compound C38, 5-[2-(cyclopropanecarbonylamino)-1,3-benzothiazol-6-yl]-N-(4,4-difluorocyclohexyl)thieno[2,3-b]pyridine-3-carboxamide] — 3.35 log units higher, 8.74
- CCOC(=O)Nc1nc2ccc(-c3cnc4scc(C(=O)NC5CCCCC5)c4c3)cc2s1 [Compound C39, ethyl N-[6-[3-(cyclohexylcarbamoyl)thieno[2,3-b]pyridin-5-yl]-1,3-benzothiazol-2-yl]carbamate] — 1.93 log units higher, 7.32
- O=C(NC1CCOCC1)c1csc2ncc(-c3ccc4nc(NC(=O)C5CC5)cn4c3)cc12 [Compound C40, 5-[2-(cyclopropanecarbonylamino)imidazo[1,2-a]pyridin-6-yl]-N-tetrahydropyran-4-yl-thieno[2,3-b]pyridine-3-carboxamide] — 1.83 log units higher, 7.22
- O=C(NC1CCCCC1)c1csc2ncc(-c3ccc4nc(NC(=O)C5CC5)cn4c3)cc12 [Compound C41, N-cyclohexyl-5-[2-(cyclopropanecarbonylamino)imidazo[1,2-a]pyridin-6-yl]thieno[2,3-b]pyridine-3-carboxamide] — 3.31 log units higher, 8.70

system: L929 mouse skin fibroblast cells; experiment: Necroptosis inhibition in L929 cell assay (TNF-α/z-VAD induced, cell viability by ATP levels); format: cell-based; settings: Mus musculus, 1 h pre-treatment with compound, then TNF-α 40 ng/mL + z-VAD 20 μM for 48 hours
Protocol: 2. Compounds Tested for Necroptosis Inhibition Activities in L929 Cell Assay
as §1, with “Mouse L929 mouse skin fibroblast” for “For this assay, HT29”, “TNF-α (40 ng/mL, lab-made)” for “tumor necrosis factor alpha (TNF-α, 40 ng/mL), Smacmimetic (cIAP inhibitor) (100 nM)”, “quantified by detecting adenosine triphosphate (ATP) levels.” for “quantified.”

Point of comparison: O=C(Nc1nc2ccc(-c3cnc4ccn(C(=O)OC5CCOCC5)c4c3)cc2s1)C1CC1 [Compound C5, tetrahydropyran-4-yl 6-[2-(cyclopropanecarbonylamino)-1,3-benzothiazol-6-yl]pyrrolo[3,2-b]pyridine-1-carboxylate], pIC50 7.77. Against it:
- O=C(Nc1nc2ccc(-c3cnc4ccn(C(=O)OC5CCOCC5)c4c3)nc2s1)C1CC1 [Compound C3, tetrahydropyran-4-yl 6-[2-(cyclopropanecarbonylamino)thiazolo[5,4-b]pyridin-5-yl]pyrrolo[3,2-b]pyridine-1-carboxylate] — 0.63 log units lower, 7.14
- O=C(Nc1nc2ccc(-c3cnc4ccn(C(=O)OC5CCC(F)(F)CC5)c4c3)cc2s1)C1CC1 [Compound C4, (4,4-difluorocyclohexyl) 6-[2-(cyclopropanecarbonylamino)-1,3-benzothiazol-6-yl]pyrrolo[3,2-b]pyridine-1-carboxylate] — 0.72 log units higher, 8.49
